Measured values reported in patent US20240366801A1, “HYPERPO[…] AND PRODUCT” (CAMBRIDGE ENTERPRISE LIMITED, priority 2021, published 2024).

System: rat liver
Assay: 13C MR spectra in rat liver after intravenous injection of hyperpolarised solution
Conditions: 1 ml of 42 mM solution, 9.4T MRI
Description: The data was acquired in preclinical horizontal-bore 9.4T MRI system using a 10-mm diameter 13C surface coil and a series of 20-degree radiofrequency pulses applied every 2 s.

Q: CC(O)[13C](=O)O (stereo not shown) [[1-13C]lactate, [1-13C]lactic acid] was tested. Which “downstream metabolites detected in 13C MR spectra” value did it give?
A: downstream metabolites could be detected
